Source: patent US12427212B2, “Nectin-4 binding miniproteins, conjugates and uses thereof” (Aktis Oncology, Inc., priority 2023, dated 2025)
“Also recorded” adds a separate entry of the source. Like-named read-outs stand apart in the source and are kept apart here. Bridges are numbered along the chain shown (N, C = ends). Primed or numbered codes have the meaning given here. The star is where a group is joined. DOTA = O=C(O)CN1CCN(CC(=O)O)CCN(CC(=O)*)CCN(CC(=O)O)CC1; PEG4 = NCCOCCOCCOCCOCCC(=O)O; PEG4′ = not defined here

Tests used:
Nectin-4 [1] = target: T1, Nectin-4 (Homo sapiens, UniProt Q96NY8); assay: Flow cytometry binding to Nectin-4-expressing (HT-1376-P) and knockout (HT-1376-KO) cells; type: cell-based; details: biotinylated miniprotein
T1 sequence (Q96NY8 32-510): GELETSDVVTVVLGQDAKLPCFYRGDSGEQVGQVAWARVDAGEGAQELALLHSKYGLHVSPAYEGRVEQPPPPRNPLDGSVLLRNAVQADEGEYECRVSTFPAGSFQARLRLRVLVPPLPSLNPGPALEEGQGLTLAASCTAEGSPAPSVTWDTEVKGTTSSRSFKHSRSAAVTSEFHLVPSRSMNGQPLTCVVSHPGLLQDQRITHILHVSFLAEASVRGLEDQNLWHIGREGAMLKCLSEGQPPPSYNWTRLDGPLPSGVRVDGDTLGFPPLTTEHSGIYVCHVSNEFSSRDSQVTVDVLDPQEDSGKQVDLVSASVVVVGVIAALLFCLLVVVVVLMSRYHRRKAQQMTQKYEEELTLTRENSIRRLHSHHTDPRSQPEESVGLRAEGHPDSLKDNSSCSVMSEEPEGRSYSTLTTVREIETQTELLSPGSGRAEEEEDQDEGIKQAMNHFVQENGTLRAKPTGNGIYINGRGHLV
Procedure: Fluorescent imaging for Nectin-4 binding was conducted using assays as described in Example 3. Briefly. Nectin-4 knockout HT-1376 cells were generated via CRISPR/Cas9 mediated gene deletion followed by single cell cloning. […] Flow cytometry was performed to measure on-target binding to cell surface Nectin-4.

[2] = tested on: un-transfected HEK293 cells; assay: Background binding to un-transfected HEK293 cells (cell microarray suitability); type: cell-based, human; details: biotin-labeled molecules
Procedure: To evaluate potential off-target binding, six biotin-labeled molecules were tested in a cell microarray platform having 6,416 different human proteins spanning diverse functions and subcellular locations.

Nectin-4 [3] = target: T1, Nectin-4; assay: DELFIA competitive binding assay (Ki) against Eu-labeled C307 on HT-1376 cells; details: in the presence of europium-labeled C307
Procedure: A competition binding assay was utilized to determine the Ki for miniproteins bound to Nectin-4 expressed on the surface of cancer cells. […] Miniprotein incubations occurred for 90 min to reach binding equilibrium. […] After miniprotein incubations, the wells were washed to remove unbound ligand and treated according to manufacturer instructions for a DELFIA® (dissociation-enhanced lanthanide fluorescent immunoassay, Revvity Health Sciences). In brief, washed wells were incubated with 15 μL of 2 M HCl for 2 h at 37° C., after which 17 μL of 2 M NaOH and 30 μL of DELFIA® enhancement solution were added to each well and incubated for an additional 30 min. The remaining Eu reacted with the DELFIA® enhancer solution to generate fluorescence measured on the Envision instrument. Relative fluorescence units (RFUs) were measured as a function of test article concentration in order to calculate an IC50.
A whole cell binding assay was used to estimate the equilibrium binding affinity (KD) or binding inhibition constant (Ki) of miniprotein ligands to cells expressing a target of interest. Cells were dispensed into a 384-well plate and incubated at 37° C., in 5% CO2 overnight. The next day cells were gently washed once in assay buffer prior to addition of europium chelated ligand. […] For Ki determination, a single concentration (KD equivalent concentration) of europium-chelate miniprotein was added to each well followed immediately by the addition of unconjugated competing ligand over 12 different concentrations ranging from 100 times below and above expected Ki values as before. The plate was incubated for 1.5 h at room temperature to reach binding equilibrium. Cells were then washed three times at room temperature with 1×PBS followed by the addition of 2 M HCl and incubated for two h at 37° C. Following this step, 2 M NaOH and fluorescent inducer solution were added to each well and incubated for 30 minutes at room temperature according to the manufacturer's protocol (Perkin-ELMER DELFIA assay). Plates were read on an Envision plate reader and a curve-fitting model was applied to estimate KD and Ki values using GraphPad Prism software.
Engineered Nectin-4 miniproteins with further modified lysine residues (C298-C304; as described in Example 4B) were evaluated for their ability to bind to Nectin-4.

[4] = Thermal stability assay, 75° C., HPLC; type: physicochemical; details: 1 mg/mL, 0.9% saline solution
Procedure: The thermal stability of an exemplary compound, C215, was analyzed at a concentration of 1 mg/mL at 75° C., in 0.9% saline solution. A heating plate was set to 75° C. and the sample was heated for a period of one h. The vial was shaken prior to collecting 10 μL aliquots at 5, 10, 15, 30, and 60 minute time intervals. The % parent remaining was analyzed by HPLC using the following system and method: Analytical Agilent 1100 HPLC system using a 4.6×250 mm, 300 Angstrom. BEH300, 5 μm, Xbridge C18 column at 1.0 mL/min. The solvent system consisted of A=Water+0.1% TFA, B=Acetonitrile+0.1% TFA. The gradient consisted of 5% to 70% B over 15 minutes, then the column was washed and equilibrated to initial conditions.

MCF7 cells = assay: Internalization assay of indium-111 radiolabeled conjugate, MCF7; type: cell-based, human; details: 37° C. or 4° C., 1 h
Procedure: (§1) Internalization was assessed for indium-111 radiolabeled C215 in HT-1376 and MCF7 cells. Cells were incubated in the presence of radioligand or radioligand plus 1000 times excess unlabeled compound (C215) at 37° C., or 4° C. for 1 h. At the end of incubation cells were washed four times with PBS and membrane bound radioligand was removed by three 0.5% trypsin washes. Cell suspensions were washed three times by method of centrifugation and removal of supernatant. Internalized radioactivity was measured by gamma counting cell pellets and cell number was determined by counting cells on an automatic cell counter. […] C215, in HT-1376 (FIG. 6A) and MCF7 cell lines (FIG. 6B).

HT-1376 cells = assay: Internalization assay of indium-111 radiolabeled conjugate, HT-1376; type: cell-based, human; details: 37° C. or 4° C., 1 h
Procedure: as §1

[5] = tested on: HT-1376 urothelial cancer cells; assay: In vitro cell cytotoxicity assay of 225Ac-radioconjugates (CellTiter-Glo); type: cell-based, human; details: compound radiolabeled with 225Ac, 24 h treatment, 4-5 day regrowth, HT-1376 cells
Procedure: Cytotoxicity to ^225Ac-radioconjugates was assessed in HT-1376 urothelial cancer cells. Cells were seeded in 96-well plates at densities of 250 to 1000 cells per well two days prior to treatment. On the day of treatment ^225Ac-radioconjugates were diluted in culture medium to concentrations ranging from 0,0001 to 100 μCi/mL and treatment solutions were incubated with cells for 24 h. At the end of the treatment period, the treatment solution was removed, and fresh culture medium was replenished for the regrowth period of the assay that lasted 4-5 day's. At the end of the regrowth period the culture medium was removed and viability was assessed by CellTiter-Glo (Promega, Waltham MA) luminescent assay and the plates were read on a Perkin Elmer Enspire multimode plate reader. Data were normalized to treatment controls and plotted as non-linear sigmoidal dose response curves to determine the effective concentration for 50% reduction in cell viability.

[6] = previously published; cited from earlier work
Nectin-4 [7] = target: T1, Nectin-4; details: cited from earlier work
[8] = tested on: HT-1376-cells ("Parental", which express Nectin-4); assay: In vivo efficacy in cell-line derived xenograft (CDX) model, HT-1376 parental; design: species or system mouse; details: 3 mg/kg IV QWx3; versus vehicle
Procedure: In vivo efficacy study experiments were performed in tumor bearing athymic nude mice. […] Tumors were monitored for a minimum of 14 days prior to group stratification and study initiation dates.
Dose measurements for a sample injected dose were measured and confirmed on a gamma counter and corrected for decay. EV doses were calculated based on mouse weights and liquid concentration of prepared material. Indicated doses of vehicle, EV or radiolabeled C251 were prepared corresponding to the indicated administered dose levels per group. Doses were administered via tail vein injection while restrained and awake.
Animal monitoring: Tumor volume (caliper measurement) and body weight measurements for enrolled mice were performed twice a week for an initial planned monitoring period of 8 weeks. More frequent gross observations of mice were performed.
Hunan endpoints: Mice remained on study until they reached the end of the 8-week monitoring period or a number of pre-defined humane endpoints, including: • 1. An increase in tumor volume size that exceeds >1500 mm^3, or 20 mm in one dimension, or tumor becomes ulcerated or necrotic. • 2. A decrease in body weight ≥20% from maximum recorded weight. • 3. Any signs of pain or distress (i.e., consistent hunched posture, rough coat, squinted eyes, slowed gait). • 4. Tumors that compromise mobility or ability to eat or drink. • 5. BCS score ≤2. […]

[9] = In vivo biodistribution of 111In-labeled miniproteins by SPECT/CT, HT-1376 xenograft; design: species or system mouse; details: female, athymic nude, mouse, in vivo
Procedure, shortened: (§2)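 Uptake in % ID/g from maximum intensity projections of SPECT/CT scans, with SPECT in activity units and CT windowed −500 to 4500 HU. Animals carried HT-1376 tumors, a human Nectin-4-expressing line, and were dosed with 111In-labeled miniproteins.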

HT-1376 tumor xenograft = assay: as above; design: species or system mouse; details: 111In-labeled, tumor, +4 h, HT-1376 xenograft mice
Procedure, shortened: as §2

[10] = tested on: HT-1376 urothelial cancer cells; assay: Radioligand binding of lutetium-177 radioconjugates, saturation and kinetic analysis; design: species or system human; details: lutetium-177 radioconjugates of PEG4-DOTA compounds, HT-1376 cells, global fit of association and dissociation
Procedure: Radioligand binding was performed in HT-1376 urothelial cancer cells by method of saturation. Cells were seeded at 20,000 cells per well in 96-well format 48 h prior to assay. Lutetium-177-labeled radioconjugates of C215 and C117 were incubated with cells at 4° C. for 1 h at various increasing concentrations of radioligand. At the end of incubation, cells were washed three times with PBS and radioactivity was quantified by gamma counting as shown in FIGS. 4A-5B.
Radioligand binding was performed in HT-1376 urothelial cancer cells by method of kinetic analysis. Cells were seeded at 20,000 cells per well in 96-well format 48 h prior to assay. On the day of assay, culture medium was removed and PBS was added to cells. Association kinetics were measured at three concentrations of radioligand, and this was performed by the addition of lutetium-177 radioconjugates to cells at various time points from 1 to 60 minutes.

[11] = PhII trial, locally advanced or metastatic bladder cancer, 10.2 months median follow up

CC[C@H](C)[C@@H]1NC(=O)[C@H](Cc2ccc(O)cc2)NC(=O)[C@H](CCC(N)=O)NC(=O)[C@@H]2CSSC[C@@H](C(=O)N[C@@H](CO)C(=O)O)NC(=O)CNC(=O)[C@H](CC(C)C)NC(=O)[C@H](CC(N)=O)NC(=O)[C@H](CC(=O)O)NC(=O)[C@H](CC(C)C)NC(=O)[C@H]([C@@H](C)CC)NC(=O)[C@H](CCC(=O)O)NC(=O)[C@H](CCC(=O)O)NC(=O)[C@H]([C@@H](C)CC)NC(=O)[C@H](CSSC[C@H](NC(=O)CCOCCOCCOCCOCCNC(=O)CCCC[C@@H]3SC[C@@H]4NC(=O)N[C@@H]43)C(=O)N[C@@H](CCC(=O)O)C(=O)N[C@@H](Cc3ccc(O)cc3)C(=O)N[C@@H](CC(=O)O)C(=O)N[C@@H](CCC(=O)O)C(=O)N[C@@H](CCC(=O)O)C(=O)N[C@@H](Cc3ccccc3)C(=O)N[C@@H](Cc3ccccc3)C(=O)N[C@@H]([C@@H](C)O)C(=O)N[C@@H](C)C(=O)N[C@@H](CC(C)C)C(=O)N[C@@H](C)C(=O)N[C@@H](CCCNC(=N)N)C(=O)N[C@@H](CC(C)C)C(=O)N[C@@H](CCCNC(=N)N)C(=O)NCC(=O)NCC(=O)N[C@@H](CC(=O)O)C(=O)N[C@@H]([C@@H](C)CC)C(=O)N2)NC(=O)[C@H](CC(C)C)NC(=O)[C@H](C)NC(=O)[C@@H]2CCCN2C(=O)[C@H](CC(C)C)NC(=O)[C@H](Cc2ccc(O)cc2)NC(=O)[C@H](CCC(N)=O)NC(=O)[C@H](Cc2ccccc2)NC(=O)[C@H](CCCC[N+](C)(C)C)NC(=O)[C@H](C)NC(=O)[C@H](CCC(N)=O)NC1=O [Compound C253]
on-target binding to cell surface Nectin-4, HT-1376-P versus HT-1376-KO cells (Nectin-4 [1]): potent and highly selective Nectin-4 targeting agent; also recorded: selective target binding | Background binding to un-transfected HEK293 cells [2]: low-background binding | binding to endogenous Nectin-4 expressed on HT-1376 cells (FIG. 21) (Nectin-4 [3]): high binding affinity

C215 ({DOTA-PEG4′}-CEYDEEFFTALKRLRGGDICYYIKKKFKKVPKLCIEEILDKLGC-NH2; cysteine pairing not given here) [Compound C215]
thermal stability, % parent remaining [4]: remain stable over 60 min | internalization of radioconjugate (MCF7 cells): successfully internalized into cells | internalization of radioconjugate (HT-1376 cells): successfully internalized into cells | EC50 (microcurie/milliliter) for 225Ac radioconjugates [5]: 0.086 microcurie/milliliter

enfortumab vedotin
Plasma terminal half-life (min) [6]: 2,476.8 (1.72 days) min

enfortumab vedotin [EV]
overall tumor objective response rate (ORR) (Nectin-4 [7]; PhI study, patients previously treated with ICI therapy): 42% | ORR (Nectin-4 [7]; PhI study, patients with particularly high tumor burden (liver metastases)): 36% | ORR (Nectin-4 [7]; [11]): 44% | complete response rate (CRR) (Nectin-4 [7]; [11]): 12% | Tumor volume [8]: Some reduction in tumor volume

{DOTA-PEG4}-CEYDEEFFTALKRLRGGDICYYIQAKFQYLPKLCIEEILDNLGCS-OH (disulfide 1-34, 20-44 (inferred)) [Compound C117]
tissue uptake at 4 h [9]: 150 %ID/g | tissue uptake at 24 h [9]: 93.3 %ID/g | Data of Biodistribution (+4 h Tumor~% ID/g) (HT-1376 tumor xenograft): 2.29 % ID/g | Kd [10]: 2.64 nM | EC50 (microcurie/milliliter) for 225Ac radioconjugates [5]: 0.014 microcurie/milliliter
